Experimental data published in ChEMBL document CHEMBL5346964, “Discovery of LNP1892: A Precision Calcimimetic for the Treatment of Secondary Hyperparathyroidism” (J Med Chem, 2023).

Experiments:
[1] = Microsomal stability in rat liver microsomes assessed as parent compound remaining at 1 uM measured upto 30 mins in presence of NADPH by LC-MS/MS analysis; assay type: ADME, Microsome; conditions: read-out: Stability
[2] = molecular target: T1, Voltage-gated inwardly rectifying potassium channel KCNH2 (Homo sapiens, UniProt Q12809); assay: Inhibition of hERG at 1 uM relative to control; assay type: toxicity; conditions: 1 µM
T1 sequence (Q12809 whole entry): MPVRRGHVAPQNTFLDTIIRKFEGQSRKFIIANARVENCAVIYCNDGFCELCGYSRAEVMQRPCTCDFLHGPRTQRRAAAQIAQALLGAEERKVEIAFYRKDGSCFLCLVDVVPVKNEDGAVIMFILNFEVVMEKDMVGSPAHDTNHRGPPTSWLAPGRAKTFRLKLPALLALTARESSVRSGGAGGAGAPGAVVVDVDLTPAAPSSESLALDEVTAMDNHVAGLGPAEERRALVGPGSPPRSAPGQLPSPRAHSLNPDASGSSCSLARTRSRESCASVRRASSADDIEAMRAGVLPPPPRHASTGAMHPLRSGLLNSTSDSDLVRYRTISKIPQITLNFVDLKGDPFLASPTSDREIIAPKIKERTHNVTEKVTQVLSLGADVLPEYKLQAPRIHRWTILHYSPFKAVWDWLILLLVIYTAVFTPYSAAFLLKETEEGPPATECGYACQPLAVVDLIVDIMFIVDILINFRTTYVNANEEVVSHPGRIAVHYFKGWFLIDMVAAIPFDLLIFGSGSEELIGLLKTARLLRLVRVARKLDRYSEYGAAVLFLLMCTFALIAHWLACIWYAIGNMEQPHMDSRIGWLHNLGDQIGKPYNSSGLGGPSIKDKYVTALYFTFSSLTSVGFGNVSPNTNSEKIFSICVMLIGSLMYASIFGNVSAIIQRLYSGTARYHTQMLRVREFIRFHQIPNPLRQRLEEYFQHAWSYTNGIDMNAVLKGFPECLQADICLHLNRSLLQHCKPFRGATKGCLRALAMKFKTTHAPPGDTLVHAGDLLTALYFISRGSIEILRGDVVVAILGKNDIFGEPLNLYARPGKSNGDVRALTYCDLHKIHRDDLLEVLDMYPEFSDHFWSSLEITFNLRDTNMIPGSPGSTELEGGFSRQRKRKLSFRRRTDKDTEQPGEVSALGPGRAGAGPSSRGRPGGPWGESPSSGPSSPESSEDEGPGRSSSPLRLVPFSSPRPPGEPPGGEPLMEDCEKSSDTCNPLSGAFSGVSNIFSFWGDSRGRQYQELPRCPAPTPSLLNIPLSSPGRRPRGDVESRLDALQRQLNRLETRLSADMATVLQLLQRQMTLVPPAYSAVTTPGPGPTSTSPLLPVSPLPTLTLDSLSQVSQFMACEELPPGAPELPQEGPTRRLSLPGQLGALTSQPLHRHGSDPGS

[3] = molecular target: T2, Extracellular calcium-sensing receptor (Homo sapiens, UniProt P41180); assay: Agonist activity at human CaSR expresssed in HEK293 cells in presence of glucose by Fluo4NW dye based FLIPR assay; assay type: functional, cell-based; conditions: read-out: EC50
T2 sequence (P41180 whole entry): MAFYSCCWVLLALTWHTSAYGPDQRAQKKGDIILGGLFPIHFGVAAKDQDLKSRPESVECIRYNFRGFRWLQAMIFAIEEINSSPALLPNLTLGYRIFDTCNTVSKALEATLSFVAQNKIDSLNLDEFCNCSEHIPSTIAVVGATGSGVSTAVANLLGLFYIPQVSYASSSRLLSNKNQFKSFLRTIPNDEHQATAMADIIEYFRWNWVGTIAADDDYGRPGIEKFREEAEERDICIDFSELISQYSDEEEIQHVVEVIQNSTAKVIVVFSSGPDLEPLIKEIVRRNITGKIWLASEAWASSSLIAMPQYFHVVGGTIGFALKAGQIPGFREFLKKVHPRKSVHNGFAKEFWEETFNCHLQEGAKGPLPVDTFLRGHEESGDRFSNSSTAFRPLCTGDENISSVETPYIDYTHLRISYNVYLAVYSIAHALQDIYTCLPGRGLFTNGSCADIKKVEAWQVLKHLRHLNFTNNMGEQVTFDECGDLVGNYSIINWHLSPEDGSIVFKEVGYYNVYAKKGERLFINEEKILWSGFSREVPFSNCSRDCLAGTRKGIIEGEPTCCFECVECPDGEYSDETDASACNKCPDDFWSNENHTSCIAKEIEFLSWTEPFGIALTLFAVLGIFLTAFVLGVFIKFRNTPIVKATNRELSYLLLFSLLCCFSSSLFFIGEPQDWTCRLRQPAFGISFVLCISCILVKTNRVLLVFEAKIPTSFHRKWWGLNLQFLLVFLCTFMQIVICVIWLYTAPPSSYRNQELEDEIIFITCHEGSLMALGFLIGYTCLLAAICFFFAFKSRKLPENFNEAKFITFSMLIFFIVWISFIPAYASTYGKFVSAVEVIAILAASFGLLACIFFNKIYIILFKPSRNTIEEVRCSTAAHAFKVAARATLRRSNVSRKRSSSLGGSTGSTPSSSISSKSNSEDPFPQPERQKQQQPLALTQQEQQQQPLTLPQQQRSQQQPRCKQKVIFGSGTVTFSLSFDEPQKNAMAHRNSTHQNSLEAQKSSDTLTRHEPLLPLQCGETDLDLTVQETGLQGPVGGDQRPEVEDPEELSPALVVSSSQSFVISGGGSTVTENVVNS

[4] = molecular target: T1, Voltage-gated inwardly rectifying potassium channel KCNH2; assay: Inhibition of hERG at 10 uM relative to control; assay type: toxicity; conditions: 10 µM
CYP2D6 [5] = molecular target: T3, CYP2D6 (Homo sapiens, UniProt P10635); assay: Inhibition of CYP2D6 in human liver microsomes at 10 uM preincubated for 5 mins followed by NADPH addition by LC-MS/MS analysis relative to control; assay type: ADME, Microsome
T3 sequence (P10635 whole entry): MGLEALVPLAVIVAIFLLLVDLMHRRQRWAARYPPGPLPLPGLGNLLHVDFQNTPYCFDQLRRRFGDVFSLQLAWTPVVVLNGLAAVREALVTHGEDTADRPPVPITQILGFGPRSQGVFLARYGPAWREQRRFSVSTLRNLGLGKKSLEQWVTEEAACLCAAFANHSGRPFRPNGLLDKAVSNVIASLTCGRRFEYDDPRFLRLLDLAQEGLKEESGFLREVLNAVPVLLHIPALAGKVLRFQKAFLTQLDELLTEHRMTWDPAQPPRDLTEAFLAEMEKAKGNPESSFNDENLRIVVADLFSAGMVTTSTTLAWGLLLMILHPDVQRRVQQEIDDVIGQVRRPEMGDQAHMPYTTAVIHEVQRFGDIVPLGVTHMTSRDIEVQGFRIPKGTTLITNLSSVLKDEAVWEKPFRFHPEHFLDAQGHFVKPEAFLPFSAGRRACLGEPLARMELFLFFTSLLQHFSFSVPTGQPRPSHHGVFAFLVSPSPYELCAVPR

[6] = Microsomal stability in human liver microsomes assessed as parent compound remaining at 1 uM measured upto 30 mins in presence of NADPH by LC-MS/MS analysis; assay type: ADME, Microsome; conditions: microsomes, 0.5 h, 1 µM
CYP2D6 [7] = molecular target: T3, CYP2D6; assay: Inhibition of CYP2D6 in human liver microsomes at 1 uM preincubated for 5 mins followed by NADPH addition by LC-MS/MS analysis relative to control; assay type: ADME, Microsome

remaining at 0.5 h, 1 µM [1] [%]	EC50 [3] [nM]	inhibition at 10 µM (CYP2D6 [5]) [%]	Stability [6] [%]	inhibition at 1 µM (CYP2D6 [7]) [%]	SMILES	inhibition (INH) [2] [%]	inhibition (INH) [4] [%]
45	47.5	43	40	26	Cc1c(C(=O)O)cccc1N1CC(CN[C@H](C)c2cccc3ccccc23)Oc2ccccc21.Cl (mixture of isomers; form 1)	-8	-5
–	49.5	–	10	–	Cc1c(C(=O)O)cccc1N1CC(CN[C@H](C)c2cccc3ccccc23)Oc2ccccc21.Cl (mixture of isomers; form 2)	-28	-16
